Results on four molecules are retold here after patent publication US20250326771A1, “PIPERAZINE DERIVATIVES USEFUL IN HIV THERAPY” (VIIV HEALTHCARE COMPANY, priority 2022, published 2025).

The test system of assay [1] is Jurkat HIV-luciferase clones. Nature of the assay: Jurkat latency reversal assay. It counts as cell-based. The settings on record: Homo sapiens, 48 h; Jurkat latency reversal assay potency; read-out: Jurkat pEC50 (converted). The method, boiled down: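 Luminescence read-out: Steady-Glo after 48 h, 37° C, on mixed Jurkat HIV-luc clones (C16, 115, N6; 5,000 cells/well total). Cpd 14-pt 3-fold dilutions, duplicate, top 10 μM, 0.5% DMSO. EC50 + max % activation vs vehicle via 4-parameter fit.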

Another assay deals with cIAP1-BIR2 (Homo sapiens (Human), UniProt Q13490). Nature of the assay: BIR binding assay (FRET competition), cIAP1 BIR2. Here is the method:
(§1) The BIR domain binding assays are FRET based competition assays that utilize His-tagged versions of each of the BIR2 and BIR3 domains from cIAP1, cIAP2, and XIAP (each domain assayed separately) each at a custom optimal concentration and a probe, 200 nM SMAC/DIABLO peptide […] labelled with AlexaFluor647 (part #crb 1110326h, Discovery Peptides). The assay is conducted in 50 mM HEPES, […], 1 mM CHAPS, 5% Glycerol, 1 mM DTT, in dI water with a final pH of 7.4 and final volume of 20 uL. Final protein domain concentrations are: 50 nM cIAP1-BIR3 (Part #APT-11-370 Reaction Biology), 100 nM XIAP-BIR3 (Part #APT-11-351 Reaction Biology), 200 nM XIAP-BIR2 (Part #APT-11-470 Reaction Biology), 325 nM cIAP2-BIR2 (Part #APT-11-489 Reaction Biology), 50 nM cIAP2-BIR3 (Part #APT-11-372 Reaction Biology), 325 nM cIAP1-BIR2 (Part #APT-11-487 Reaction Biology). Compounds were plated using a HP Tecan D300 printer in a final total volume of 202 nl and DMSO concentration normalized across the 15-point, 3-fold dilution series. Peptide and probe were prepared at 2× relative to the concentrations above in binding buffer, 10 uL added to the prepared compound plates, and incubated for 60 minutes. LANCE Eu-W1024 (part #AD0401 Perkin Elmer #, vendor) was prepared at 2× concentration in binding buffer for final concentration of 2 nM, 10 uL added to each well, and plates incubated for 30 minutes. Plates were read on an ENVISION multifunction plate reader with […] laser excitation to obtain the 615 nm/665 nm emission ratio as indicative of probe:protein proximity. Data was analyzed using GraphPad PRISM and curves fit using log(inhibitor) vs. response—Variable slope (four […] method to obtain IC50 and pIC50 values.

The target of the next assay is cIAP2-BIR2 (Homo sapiens (Human), UniProt Q13489). Nature of the assay: BIR binding assay (FRET competition), cIAP2 BIR2. The protocol: as §1
Chain of cIAP2-BIR2 (Q13489 158-242): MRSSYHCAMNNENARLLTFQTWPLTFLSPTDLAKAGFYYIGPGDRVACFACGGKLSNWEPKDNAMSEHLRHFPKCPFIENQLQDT
The next assay addresses XIAP-BIR3 (Homo sapiens (Human), UniProt P98170). Nature of the assay: BIR binding assay (FRET competition), XIAP BIR3. The procedure, abridged:
(§2)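 Each domain is run separately at its own level: 50 nM cIAP1-BIR3, 100 nM XIAP-BIR3, 325 nM for cIAP1-BIR2 or cIAP2-BIR2. Probe is a 200 nM fluorescent SMAC peptide, and the value is IC50 from FRET competition.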

In another assay the target is cIAP1-BIR3 (Homo sapiens (Human), UniProt Q13490). Nature of the assay: BIR binding assay (FRET competition), cIAP1 BIR3. The settings on record: for cIAP1 BIR3 vs BIR2 separation window: fold separation (FS) for cIAP1. The procedure, abridged: as §2
Chain of cIAP1-BIR3 (Q13490 253-363): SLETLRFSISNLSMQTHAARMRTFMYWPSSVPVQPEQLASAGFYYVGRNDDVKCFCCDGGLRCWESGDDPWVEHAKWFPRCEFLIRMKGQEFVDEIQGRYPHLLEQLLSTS
In a further assay the target is cIAP2-BIR3 (Homo sapiens (Human), UniProt Q13489). The assay can be described thus: BIR binding assay (FRET competition), cIAP2 BIR3. As to conditions: for cIAP2 BIR3 vs BIR2 separation window: fold separation (FS) for cIAP2.
Chain of cIAP2-BIR3 (Q13489 238-349): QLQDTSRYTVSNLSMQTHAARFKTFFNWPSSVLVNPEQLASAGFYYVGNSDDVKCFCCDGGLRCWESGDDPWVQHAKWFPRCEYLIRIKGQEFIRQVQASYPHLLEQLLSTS

Chain of XIAP-BIR3 (P98170 241-356): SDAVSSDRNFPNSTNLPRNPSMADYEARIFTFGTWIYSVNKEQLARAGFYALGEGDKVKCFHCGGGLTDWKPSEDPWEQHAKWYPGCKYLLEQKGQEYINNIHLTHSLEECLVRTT
Chain of cIAP1-BIR2 (Q13490 173-257): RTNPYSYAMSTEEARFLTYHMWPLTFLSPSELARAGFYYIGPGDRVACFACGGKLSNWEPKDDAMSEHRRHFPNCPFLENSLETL

Regarding `C[C@@H]1CN(CC(=O)N2CC(C)(C)c3[nH]c(=O)c(Cc4ccc(F)cc4)cc32)[C@@H](CN2CCC[C@H](NC(=O)CCCCCCCCCCCCC(=O)N[C@H]3CCCN(C[C@H]4CN[C@H](C)CN4CC(=O)N4CC(C)(C)c5[nH]c(=O)c(Cc6ccc(F)cc6)cc54)C3)C2)CN1` [Example 40, N^1,N^14-bis((S)-1-(((2R,5R)-1-(2-(6-(4-fluorobenzyl)-3,3-dimethyl-5-oxo-2,3,4,5-tetrahydro-1H-pyrrolo[3,2-b]pyridin-1-yl)-2-oxoethyl)-5-methylpiperazin-2-yl)methyl)piperidin-3-yl)tetradecanediamide], the EC50 in assay [1] is 63.1 to 316 nM. Also, the IC50 on cIAP1-BIR2 is 10000 to 51300 nM; at cIAP2-BIR2 it was 10000 to 51300 nM; on XIAP-BIR3, 31.6 to 501 nM; on cIAP1-BIR3, 15.8 to 31.6 nM; at cIAP2-BIR3, 15.8 to 31.6 nM. Besides, the “cIAP1 BIR3 vs BIR2 separation window” value on cIAP1-BIR3 is “+++ (10,000>FS>1,000)”. In addition, the “cIAP2 BIR3 vs BIR2 separation window” value on cIAP2-BIR3 is listed as “+++ (10,000>FS>1,000)”.

`Cc1cc(Cl)ccc1Cc1cc2c([nH]c1=O)C(C)(C)CN2C(=O)CN1C[C@@H](C)NC[C@@H]1CN1CCO[C@H](C(=O)NCc2ccc(CNC(=O)[C@@H]3CN(C[C@H]4CN[C@H](C)CN4CC(=O)N4CC(C)(C)c5[nH]c(=O)c(Cc6ccc(Cl)cc6C)cc54)CCO3)cc2)C1` [Compound 168, (2S,2′S)-N,N′-(1,4-phenylenebis(methylene)) bis(4-(((2R,5R)-1-(2-(6-(4-chloro-2-methylbenzyl)-3,3-dimethyl-5-oxo-2,3,4,5-tetrahydro-1H-pyrrolo[3,2-b]pyridin-1-yl)-2-oxoethyl)-5-methylpiperazin-2-yl)methyl)morpholine-2-carboxamide)]: in assay [1], the EC50 was 0.49 to 12.6 nM. Also, the IC50 at cIAP2-BIR2 fell in the range of 22.4 to 1000 nM; on XIAP-BIR3, 31.6 to 501 nM; at cIAP1-BIR3, 15.8 to 31.6 nM; at cIAP2-BIR3 it was 7.94 to 15.8 nM. Also, on cIAP2-BIR3, the “cIAP2 BIR3 vs BIR2 separation window” value was “++ (1,000>FS>100)”.

Regarding `C[C@@H]1CN(CC(=O)N2CC(C)(C)c3[nH]c(=O)c(Cc4ccc(F)cc4)cc32)[C@@H](CN2CCC(CCOc3cccc(OCCC4CCN(C[C@H]5CN[C@H](C)CN5CC(=O)N5CC(C)(C)c6[nH]c(=O)c(Cc7ccc(F)cc7)cc65)CC4)c3)CC2)CN1` [Example 108, 1,1′-(2,2′-((3R,3′R,6R,6′R)-((((1,3-phenylenebis(oxy))bis(ethane-2,1-diyl))bis(piperidine-4,1-diyl))bis(methylene))bis(3-methylpiperazine-6,1-diyl))bis(acetyl))bis(6-(4-fluorobenzyl)-3,3-dimethyl-1,2,3,4-tetrahydro-5H-pyrrolo[3,2-b]pyridin-5-one)], the EC50 in assay [1] was 12.6 to 63.1 nM. In addition, the IC50 on cIAP2-BIR2 was in the range of 10000 to 51300 nM; at XIAP-BIR3, 31.6 to 501 nM; on cIAP1-BIR3, 15.8 to 31.6 nM; at cIAP2-BIR3 it was 15.8 to 31.6 nM.

For `C[C@@H]1CN(CC(=O)N2CC(C)(C)c3ncc(Cc4ccc(Br)cc4)cc32)[C@@H](CN2CCO[C@H](COc3cccc(OC[C@@H]4CN(C[C@H]5CN[C@H](C)CN5CC(=O)N5CC(C)(C)c6ncc(Cc7ccc(Br)cc7)cc65)CCO4)c3)C2)CN1` [Compound 153], the EC50 in assay [1] is 63.1 to 316 nM. In addition, the IC50 lay in the range of 10000 to 51300 nM on cIAP1-BIR2, 31.6 to 501 nM at XIAP-BIR3, 31.6 to 501 nM on cIAP1-BIR3 and 31.6 to 501 nM on cIAP2-BIR3. At cIAP1-BIR3, the “cIAP1 BIR3 vs BIR2 separation window” value is “+++ (10,000>FS>1,000)”.

A word on the IC50: it is the midpoint of a concentration-inhibition curve. A lower IC50 goes with greater potency in that assay.
